# Measurements: patent US20100099770A1, “METHOD FOR TREATING DIABETIC PERIPHERAL NEUROPATHIC PAIN” (SCHWARZ PHARMA AG, priority 2001, published 2010)
# Entries after “also recorded” stand apart in the source; their conditions may differ. Marks after values point to notes of the source that are not given here.
# Columns and labels:
# [1] = test system: formalin-induced nociception (paw licking); experiment: Subchronic inflammatory nociception in mice (formalin test); type: in vivo; settings: for nociceptive threshold, early phase: 0-5 min after formalin (acute pain); for nociceptive threshold, late phase: 20-30 min after formalin (subchronic inflammatory pain); for effect on formalin-induced nociceptive response (in words): 10, 20, 40 mg/kg i.p.
# Method: Subchronic inflammatory nocicpetion in mice was induced by the subplantar injection of formalin (0.02 ml of a 5% solution). Nociceptive behaviour (paw licking) was measured and quantified between 0 and 5 min (acute pain) and between 20 and 30 min (subchronic inflammatory pain) after formalin.
# Drugs and experimental design: SPM 927 and GBP were suspended in 1% methylcellulose and administered i.p. at doses of 10 mg/kg, 20 mg/kg and 40 mg/kg. Pre-treatment time was 30 min before pain measurement. One group of animals served as controls and consequently received an injection of solvent (10 ml/kg) and another group of animals received a reference compound (Carrageenan test: 10 mg/kg indomethacin; Formalin test: 10 mg/kg morphine). Each compound was tested in a separate experiment and each experiment included a control and a reference group. 10 rats per group were used in the Carrageenan test and 6 mice per group in the formalin test.
# [2] = test system: acute spinal thermal nociception; experiment: Tail flick test, rat; type: in vivo; settings: for Anti-nociceptive effect: ±SEM
# Text: Harkoseride was additionally tested for potential activity in acute spinal thermal nociception using the tail flick test. In this model of acute thermal spinal/reflex hyperalgesia radiant heat is applied to the animal's tail approximately 2 cm from the tip and time latency for withdrawal reaction is automatically assessed by an algometer, a defined maximal stimulus time prevents tissue damage. This test is widely used as an assay for the anti-nociceptive efficacy of pharmacological agents and is highly predictive of acute analgesic efficacy in humans.
# Results for 20 and 40 mg/kg harkoseride i.p are shown in table 5 [percent anti-nociception, calculated as [{(post-drug latency)−(pre-drug-latency)}/{(max. latency)−(pre-drug latency)}×100]±SEM, n=12/group]. A baseline or pre-drug tail-flick latency was determined by averaging 5 consecutive measurements taken 2 minutes apart. Vehicle (sterile water 0.04 ml/10 g body weight) or harkoseride were then administered and tail flick latencies recorded at 10-minute intervals for the next 60 minutes.
# [3] = test system: neuropathic pain (CHUNG), thermal stimulation; experiment: Neuropathic pain (CHUNG) test, thermal stimulation on lesioned paw; type: in vivo, rat; settings: for PAW-WITHDRAWAL LATENCY, % change: compared with lesioned control; for PAW-WITHDRAWAL LATENCY, mean ± s.e.m.: lesioned paw
# Text: The following Tables 8 and 9 show the effects of harkoseride (hereinafter referred tows SPM 927), carbamazepine, levetiracetam, gabapentin and morphine in the neuropathic pain (CHUNG) test in the rat. Eight (8) rats per group were used.
smiles,measurement,setting,value
"COC[C@@H](NC(C)=O)C(=O)NCc1ccccc1 [SPM 927, (R)-2-Acetamido-N-benzyl-3-methoxypropionamide]","nociceptive threshold, early phase",[1]; 10 mg/kg i.p.,67 ± 15 s
same,"nociceptive threshold, late phase",[1]; 10 mg/kg i.p.,58 ± 16^a s
same,"nociceptive threshold, early phase",[1]; 20 mg/kg i.p.,69 ± 8 s
same,"nociceptive threshold, late phase",[1]; 20 mg/kg i.p.,128 ± 16 s
same,"nociceptive threshold, early phase",[1]; 40 mg/kg i.p.,8 ± 8^a s
same,"nociceptive threshold, late phase",[1]; 40 mg/kg i.p.,17 ± 17^a s
same,effect on formalin-induced nociceptive response (in words),[1],near complete reversal
same,effect on formalin-induced nociceptive response (in words),[1]; listed as SPM-927,dose dependently suppressed
same,Anti-nociceptive effect,"[2]; 20 mg/kg i.p., 10 min after drug",5.0 ± 3.94%
same,Anti-nociceptive effect,"[2]; 20 mg/kg i.p., 20 min after drug",9.7 ± 7.51%
same,Anti-nociceptive effect,"[2]; 20 mg/kg i.p., 30 min after drug",9.7 ± 2.37%
same,Anti-nociceptive effect,"[2]; 20 mg/kg i.p., 40 min after drug",1.7 ± 7.42%
same,Anti-nociceptive effect,"[2]; 20 mg/kg i.p., 50 min after drug",5.4 ± 4.12%
same,Anti-nociceptive effect,"[2]; 20 mg/kg i.p., 60 min after drug",8.1 ± 5.20%
same,Anti-nociceptive effect,"[2]; 40 mg/kg i.p., 10 min after drug",−1.6 ± 12.82%
same,Anti-nociceptive effect,"[2]; 40 mg/kg i.p., 20 min after drug",−4.3 ± 14.04%
same,Anti-nociceptive effect,"[2]; 40 mg/kg i.p., 30 min after drug",−2.3 ± 9.14%
same,Anti-nociceptive effect,"[2]; 40 mg/kg i.p., 40 min after drug",−4.4 ± 11.44%
same,Anti-nociceptive effect,"[2]; 40 mg/kg i.p., 50 min after drug",0.3 ± 15.50%
same,Anti-nociceptive effect,"[2]; 40 mg/kg i.p., 60 min after drug",−5.5 ± 14.11%
same,effect in the tail flick test (in words),"[2]; 20 and 40 mg/kg i.p., listed as harkoseride",negative results; also recorded: little or no effect; also recorded: no anti-nociceptive effect
same,"PAW-WITHDRAWAL LATENCY, % change",[3]; 8 mg/kg i.p. -30 min,+60% (b)
same,"PAW-WITHDRAWAL LATENCY, mean ± s.e.m.",[3]; 8 mg/kg i.p. -30 min,26.1 ± 5.4 NS (b) sec
same,"PAW-WITHDRAWAL LATENCY, % change",[3]; 16 mg/kg i.p. -30 min,+3% b)
same,"PAW-WITHDRAWAL LATENCY, mean ± s.e.m.",[3]; 16 mg/kg i.p. -30 min,16.8 ± 4.5 NS (b) sec
same,"PAW-WITHDRAWAL LATENCY, % change",[3]; 32 mg/kg i.p. -30 min,+29% (b)
same,"PAW-WITHDRAWAL LATENCY, mean ± s.e.m.",[3]; 32 mg/kg i.p. -30 min,21.1 ± 5.6 NS (b) sec
